{"source": "patent US20120028837A1", "about": "“RAPID SCREEN FOR REPRODUCTIVE TOXICANTS” (PRESIDENT AND FELLOWS OF HARVARD COLLEGE, priority 2010, published 2012)", "key": {"[1]": {"tested_on": "C. elegans germline", "experiment": "Size of mitotic zone of the germline (DAPI, phospho-histone H3 staining)", "details": "in vivo", "text": "In C. elegans, the germline is comprised of two main compartments, a mitotic region (the premeiotic tip), where nuclei are under the influence of the distal tip cell that maintains them in a proliferative state; and the meiotic region, where nuclei progress through the stages of Prophase I before being fertilized. The mitotic compartment of the worm gonad following BPA exposure was examined.\nBPA bears endocrine disrupting activity in many developmental contexts including gonadal, brain and mammary gland development. BPA has affinity for multiple members of the estrogen receptors family, in particular BPA binds to the human estrogen receptor alpha (ERα) and ERβ as well as estrogen-related receptor gamma (ERR-γ) and in C. elegans with nuclear hormone receptor NHR-14 which also binds estrogen. […] Two hallmarks of exposure to BPA were examined, the decrease in the size of the proliferative zone and the condensation defects observed at diakinesis, as they are both highly penetrant and consistent phenotypes. […] Similarly to the experiments described above, the size of the mitotic zone was quantified as well as condensation defects at diakinesis.\n(§1) Growing Conditions and Drug Exposures. Worms were cultured according to [23] at 20° C. on NGM plates without cholesterol. […] Exposure was carried from embryogenesis to adulthood by plating sodium hypochloride treated eggs onto drug and control plates and incubated at 20° C. for four days.\nAntibody Staining. DAN staining, immunostaining and analysis of stained meiotic nuclei were performed as in [25] except for ATL-1 and AIR-2 antibodies were dissected gonads were subjected to a 1% fixation method as described in [27]. […] The secondary antibodies used were: Cy3 anti-rabbit, FITC anti-guinea-pig and FITC anti-mouse (Jackson Immunochemicals), each at 1:100, Stacks of 0.2 μm slices were captured using a Leica microscope, coupled to the DeltaVision fluorescence microscope system (Applied Precision). […]"}, "[2]": {"tested_on": "C. elegans germline", "details": "in vivo", "text": "(§2) Synapsis and recombination are tightly linked events during pachytene throughout various species, as it is only in the context of a fully assembled SC that crossover recombination can be completed. Indeed, in C. elegans, null mutants of SC components such as syp-1, syp-2, syp-3, syp-4 and him-3, increased levels of RAD-51 foci formation and delayed kinetics of foci turnover are observed during pachytene. Consequently, there is activation of the DNA damage checkpoint leading to increased germ cell apoptosis. Recombination is an essential and highly regulated process for the exchange of information that takes place during prophase I [18]. As nuclei exit mitosis and progress through meiosis, programmed meiotic DNA double strand breaks (DSBs) are formed and processed by several DNA repair proteins including RAD-51 [25, 48]. […] As unrepaired recombination intermediates can trigger a DNA-damage checkpoint during pachytene leading to increased germ cell apoptosis, the number of apoptotic nuclei following BPA exposure was measured by Syto-12 staining. […]\nQuantification of Germ Cell Apoptosis. Apoptotic germline nuclei were scored in young adults between 20 and 24 hours post-L4 using SYTO-12 (Invitrogen) and were processed as described in [26]. […] Both GFP positive and negative worms (heterozygous and homozygous for cep-1 respectively) were analyzed following BPA exposure. […]"}, "[3]": {"tested_on": "H2B::mCherry; γ-tubulin::GFP transgenic worms", "details": "OD57 (pie-1::mCherry::H2B; pie-1::GFP::gamma tubulin), C. elegans, in vivo", "method": "60 first mitosis in ethanol and BPA exposed H2B::mCherry; γ-tubulin::GFP transgenic worms were captured by live imaging. While normal pronuclear fusion and chromosomal alignment and segregation in ethanol controls was observed, the first division of BPA exposed embryos was highly abnormal. […] In some instances, multiple spindle poles were apparent.\nLive Imaging. For live imaging, a pie-1::mCherry::H2B; pie-1::GFP::gamma tubulin OD57 strain was used. The strain was incubated at 25° C. 24 hours prior to imaging. Images were captured using the Leica-Deltavision system described above. Worms were immobilized on an agarose pad by sectioning of the head and images of the first cell division were captured at a rate of one image every 10 seconds for 5 minutes."}, "[4]": {"tested_on": "C. elegans germline", "experiment": "ATL-1 and p-CHK1 immunostaining (DNA damage checkpoint)", "assay_type": "in vivo", "text": "ATL-1, the C. elegans homologue of mammalian ATM and Rad3-related protein (ATR), accumulates to sites of persistent DSBs during meiosis, and together with CLK-2, acts as a sensor of germ-cell DNA damage which leads to phosphorylation of the checkpoint kinase CHK1 and ultimately apoptosis. To further examine the progression of DSB repair, the levels of ATL-1 and phosphorylated CHK1 (p-CHK1) were monitored throughout the gonad following exposure to BPA."}, "[5]": {"experiment": "in vivo", "details": "C. elegans", "procedure": "The internal concentration of free BPA was measured by tandem HPLC analysis (Axys, BC, Canada) following an extensive number of physiological buffer washes and lysis of worms cultured on BPA plates (Materials an Methods)."}, "[6]": {"tested_on": "C. elegans germline", "details": "in vivo, 4 days, 1 mM", "text": "as §2, with “48]. RAD-51 levels vary greatly during progression through prophase I as it is loaded onto DNA during the process of strand invasion and is removed as DSBs repair progresses.” for “48].”\nRad-51 Time Course Analysis. The number of RAD-51 foci and their kinetics throughout the seven zones was assessed as described in [25]. […]"}, "[7]": {"tested_on": "C. elegans", "details": "in vivo, 4 days, 1 mM", "method": "To address whether BPA also affects C. elegans reproduction, worms were exposed to various concentrations of BPA under several culture conditions. The parameters tested were: BPA concentration (100 uM, 500 uM or 1 mM), vehicle (DMSO or ethanol), cholesterol concentration (5 ug/ml, 0.5 ug/ml or none) and culture method (liquid or plate).\nas §1"}}, "data": [{"smiles": "CC(C)(c1ccc(O)cc1)c1ccc(O)cc1", "note": "[BPA, Bisphenol A]", "values": [{"measurement": "size of the premeiotic tip a day later", "setting": "[1]", "result": "No significant increase"}, {"measurement": "apoptotic levels in a cep-1 mutant background", "setting": "[2]", "result": "reduced to normal levels"}, {"measurement": "number of apoptotic nuclei compared to vehicle", "setting": "[2]", "result": "two to three-fold increase"}, {"measurement": "one-cell embryos failing to align on the metaphase plate and/or segregate properly", "setting": "[3]", "result": "9/60"}, {"measurement": "elevated RAD-51, ATL-1 or p-CHK1 staining in the mitotic germline nuclei", "setting": "[4]; BPA exposure", "result": "not observed"}, {"measurement": "levels of ATL-1 signal on pachytene nuclei", "setting": "[4]; BPA treated vs control", "result": "significant increase"}, {"measurement": "levels of p-CHK1 signal on pachytene nuclei", "setting": "[4]; BPA treated vs control", "result": "significant increase"}, {"measurement": "concentration at 4 days, 1 mM", "setting": "[5]", "result": 2000, "unit": "ng/g"}, {"measurement": "RAD-51 foci in late pachytene (zones 6 and 7)", "setting": "[6]", "result": "elevated number of RAD-51 foci"}, {"measurement": "embryonic viability", "setting": "[7]", "result": "1.5 % of controls"}, {"measurement": "reduction in the number of eggs laid (brood size) compared to vehicle", "setting": "[7]", "result": 4, "unit": "fold"}]}]}
